# Assay results as given in patent publication US5536723A, “S-nitroso derivatives of hydrazinoacetic acids, 1-[(acylthio and (mercapto)-1-oxoalkyl]-1,2,34-Tetrahydroquinoline-2-carboxylic acids and alanyl prolines and isoquinolines” (Brigham & Women's Hospital, priority 1994, dated 1996).
# Entries after “also recorded” stand apart in the source; their conditions may differ.
# Tests used:
# [1] = tested on: bovine femoral artery; assay: relaxation of isolated bovine femoral artery rings contracted with norepinephrine; conditions: methylene blue 10^-5 M; FIG. 4
# Method: FIG. 2 depicts a graph showing the effect of S-nitrosocaptopril on the contraction of bovine femoral arteries to norepinephrine.
# (§1) Blood Vessel Preparation. Bovine coronary or femoral arteries were obtained from an abattoir immediately after sacrifice of two- to four-week-old calves. Immediately after removal, the vessel was placed in ice-cold physiologic salt solution (PSS) containing 118.3 mM NaCl, 4.7 mM KCl, 2.5 mM CaCl2, 1.2 mM MgSO4, 1.2 mM KH2 PO4, 25.0 mM NaHCO3, 11.1 mM glucose, and 0.026 mM calcium disodium (ethylenedinitrilo)-tetraacetate. The vessels were then cleaned of adventitial tissue and cut into rings of approximately 5 mm lengths. When called for by the protocol, endothelium was removed from a ring by gently rubbing the luminal surface with a watchmaker's forceps. Vascular rings with intact endothelium were then suspended in organ chambers containing 25 ml of PSS at 37° aerated with 95% O2 -5% CO2. The rings were connected to force transducers (Grass FT03C, Quincy, Mass.) and changes in isometric force recorded continuously (Grass Polygraph Model 79B) over a period of 90 minutes. The optimal length-tension relationship was determined for each ring by observing the response to 10^-6 M norepinephrine after increments in tension of 0.5 gm. The functional integrity of the endothelium was assessed by contracting the vessel with 10^-6 M norepinephrine and then observing the response to 3×10^-7 M acetylcholine chloride.
# Vascular ring segments with intact endothelium were […] contracted with a concentration of norepinephrine inducing a half-maximal response. After a stable contraction had been achieved, the tissue was exposed to increasing concentrations of S-nitrosocaptopril in cumulative half-log increments. […] The apparent IC50 is approximately 1 μM.
# [2] = tested on: bovine coronary artery; assay: relaxation of isolated bovine coronary artery rings contracted with potassium chloride
# From the text: FIG. 5 depicts a graph showing the relaxation to sodium nitroprusside in the bovine coronary artery in the presence (o; n=7) or absence (; n:12) of a subthreshhold dose of S-nitrosocaptopril. The data are expressed as a percentage of the initial tension generated by potassium chloride (4×10^-2 M; coronary arteries) and are shown as mean ±SEM in each group.
# as §1
# Thus, to study vasodilating agents in this tissue the vessels were first contracted with potassium chloride (40 mM). Relaxations are expressed as a percent of the concentration to 40 mM potassium chloride.
# Relaxations to S-nitrosocaptopril were inhibited by the antagonist of soluble guanylate cyclase, methylene blue (FIG. 4). Sodium nitroprusside induced dose-dependent relaxations of contractions to potassium chloride. The relaxation to sodium nitroprusside was inhibited by subthreshold doses of S-nitrosocaptopril (FIG. 5).
# [3] = tested on: bovine femoral artery, contraction to angiotensin I; assay: contraction of the bovine femoral artery to angiotensin I; conditions: for Contraction to Agonist: Angiotensin I
# Method: The data are expressed as a percentage of the maximal response to norepinephrine (10^-6 M) and are shown as mean ±SEM in each group (n=7).
# as §1
# [4] = tested on: bovine femoral artery, contraction to angiotensin II; assay: contraction of the bovine femoral artery to angiotensin II; conditions: for Contraction to Agonist: Angiotensin II
# Method: The data are expressed as a percentage of the maximal response to norepinephrine (10^-4 M) and are shown as mean ±SEM in each group (n=6).
# as §1
# [5] = -Log M 6, Sar 10^-7 M, * p < 0.05
# [6] = -Log M 6.5, Sar 10^-7 M, * p < 0.05
# [7] = -Log M 7, Sar 10^-7 M, * p < 0.05
# [8] = -Log M 7.5, Sar 10^-7 M, * p < 0.05
# [9] = -Log M 8, Sar 10^-7 M, * p < 0.05
# [10] = saralasin, lower concentrations than 10^-8 M
compound,measurement,setting,value
CN(C)c1ccc2nc3ccc(=[N+](C)C)cc-3sc2c1 [methylene blue],"effect of methylene blue on relaxations to S-nitrosocaptopril, femoral artery (in words)",[1],significantly less than control (p<0.05)
same,"effect of methylene blue on relaxations to S-nitrosocaptopril, coronary artery (in words)","[2]; methylene blue 10^-5 M, FIG. 4",significantly less than control (p<0.05); also recorded: inhibited
[Cl-].[K+] [potassium chloride],stable contraction induced by potassium chloride,[2]; 40 mM,7.3 ± 4.3 g
CNCC(=O)N[C@@H](CCCN=C(N)N)C(=O)N[C@H](C(=O)N[C@@H](Cc1ccc(O)cc1)C(=O)N[C@H](C(=O)N[C@@H](Cc1cnc[nH]1)C(=O)N1CCC[C@H]1C(=O)N[C@@H](C)C(=O)O)C(C)C)C(C)C [saralasin],Contraction to Agonist,[3]; [5],0.9 ± 0.9 percentage of the maximal cont
same,Contraction to Agonist,"[3]; -Log M 6, Sar 10^-8 M",35.5 ± 7.0 percentage of the maximal cont
same,Contraction to Agonist,"[3]; -Log M 6, Sar 10^-9 M",25.6 ± 13.0 percentage of the maximal cont
same,Contraction to Agonist,[3]; [6],0 percentage of the maximal cont
same,Contraction to Agonist,"[3]; -Log M 6.5, Sar 10^-8 M",35.7 ± 22.1 percentage of the maximal cont
same,Contraction to Agonist,"[3]; -Log M 6.5, Sar 10^-9 M",31.4 ± 10.7 percentage of the maximal cont
same,Contraction to Agonist,[3]; [7],0 percentage of the maximal cont
same,Contraction to Agonist,"[3]; -Log M 7, Sar 10^-8 M, * p < 0.05",19.6 ± 7.0 percentage of the maximal cont
same,Contraction to Agonist,"[3]; -Log M 7, Sar 10^-9 M",33.0 ± 12.6 percentage of the maximal cont
same,Contraction to Agonist,[3]; [8],0 percentage of the maximal cont
same,Contraction to Agonist,"[3]; -Log M 7.5, Sar 10^-8 M, * p < 0.05",16.3 ± 9.4 percentage of the maximal cont
same,Contraction to Agonist,"[3]; -Log M 7.5, Sar 10^-9 M",22.6 ± 10.1 percentage of the maximal cont
same,Contraction to Agonist,[3]; [9],0 percentage of the maximal cont
same,Contraction to Agonist,"[3]; -Log M 8, Sar 10^-8 M",7.9 ± 7.9 percentage of the maximal cont
same,Contraction to Agonist,"[3]; -Log M 8, Sar 10^-9 M",3.9 ± 1.5 percentage of the maximal cont
same,Contraction to Agonist,"[3]; -Log M 8.5, Sar 10^-7 M",0 percentage of the maximal cont
same,Contraction to Agonist,"[3]; -Log M 8.5, Sar 10^-8 M",1.6 ± 1.6 percentage of the maximal cont
same,Contraction to Agonist,"[3]; -Log M 8.5, Sar 10^-9 M",0 percentage of the maximal cont
same,Contraction to Agonist,"[3]; -Log M 9, Sar 10^-7 M",0 percentage of the maximal cont
same,Contraction to Agonist,"[3]; -Log M 9, Sar 10^-8 M",0 percentage of the maximal cont
same,Contraction to Agonist,"[3]; -Log M 9, Sar 10^-9 M",0 percentage of the maximal cont
same,effect of saralasin on contractions to angiotensin I (in words),[3]; saralasin 10^-7 M,attenuated contractions
same,effect of saralasin on contractions to angiotensin I (in words),[3]; saralasin 10^-8 M,inhibited contractions to angiotensin I
same,effect of saralasin on contractions to angiotensin I (in words),[3]; [10],no effect
same,Contraction to Agonist,[4]; [5],6.0 percentage of the maximal cont
same,Contraction to Agonist,"[4]; -Log M 6, Sar 10^-8 M",32.8 ± 21.0 percentage of the maximal cont
same,Contraction to Agonist,"[4]; -Log M 6, Sar 10^-9 M",51.8 ± 18.8 percentage of the maximal cont
same,Contraction to Agonist,[4]; [6],9.2 ± 5.3 percentage of the maximal cont
same,Contraction to Agonist,"[4]; -Log M 6.5, Sar 10^-8 M",32.8 ± 20.4 percentage of the maximal cont
same,Contraction to Agonist,"[4]; -Log M 6.5, Sar 10^-9 M",51.8 ± 18.8 percentage of the maximal cont
same,Contraction to Agonist,[4]; [7],3.2 ± 1.8 percentage of the maximal cont
same,Contraction to Agonist,"[4]; -Log M 7, Sar 10^-8 M",32.4 ± 17.3 percentage of the maximal cont
same,Contraction to Agonist,"[4]; -Log M 7, Sar 10^-9 M",51.8 ± 18.8 percentage of the maximal cont
same,Contraction to Agonist,[4]; [8],2.8 ± 2.8 percentage of the maximal cont
same,Contraction to Agonist,"[4]; -Log M 7.5, Sar 10^-8 M",24.0 ± 13.8 percentage of the maximal cont
same,Contraction to Agonist,"[4]; -Log M 7.5, Sar 10^-9 M",43.4 ± 16.9 percentage of the maximal cont
same,Contraction to Agonist,[4]; [9],1.7 ± 1.7 percentage of the maximal cont
same,Contraction to Agonist,"[4]; -Log M 8, Sar 10^-8 M",10.7 ± 8.1 percentage of the maximal cont
same,Contraction to Agonist,"[4]; -Log M 8, Sar 10^-9 M",34.0 ± 12.9 percentage of the maximal cont
same,Contraction to Agonist,"[4]; -Log M 8.5, Sar 10^-7 M",0 percentage of the maximal cont
same,Contraction to Agonist,"[4]; -Log M 8.5, Sar 10^-8 M",0.9 ± 0.9 percentage of the maximal cont
same,Contraction to Agonist,"[4]; -Log M 8.5, Sar 10^-9 M",18.5 ± 9.6 percentage of the maximal cont
same,Contraction to Agonist,"[4]; -Log M 9, Sar 10^-7 M",0 percentage of the maximal cont
same,Contraction to Agonist,"[4]; -Log M 9, Sar 10^-8 M",0 percentage of the maximal cont
same,Contraction to Agonist,"[4]; -Log M 9, Sar 10^-9 M",2.4 ± 1.2 percentage of the maximal cont
same,effect of saralasin on contractions to angiotensin II (in words),[4]; saralasin 10^-7 M,attenuated contractions
same,effect of saralasin on contractions to angiotensin II (in words),[4]; [10],no effect
"angiotensin I: agonist; converted by ACE to angiotensin II by removal of the carboxy terminal His-Leu (DRVYIHPFHL; Angiotensin-1; UniProt P01019 25-34, looked up)",Contraction to Agonist,"[3]; -Log M 6, Sar 0 (control)",45.3 ± 13.5 percentage of the maximal cont
same,Contraction to Agonist,"[3]; -Log M 6.5, Sar 0 (control)",42.5 ± 13.4 percentage of the maximal cont
same,Contraction to Agonist,"[3]; -Log M 7, Sar 0 (control)",38.6 ± 15.9 percentage of the maximal cont
same,Contraction to Agonist,"[3]; -Log M 7.5, Sar 0 (control)",27.7 ± 12.7 percentage of the maximal cont
same,Contraction to Agonist,"[3]; -Log M 8, Sar 0 (control)",12.6 ± 11.4 percentage of the maximal cont
same,Contraction to Agonist,"[3]; -Log M 8.5, Sar 0 (control)",3.3 ± 5.9 percentage of the maximal cont
same,Contraction to Agonist,"[3]; -Log M 9, Sar 0 (control)",0 percentage of the maximal cont
same,maximum contraction response to angiotensin I,[3]; n=11,4.4 ± 1.6 g
"angiotensin II: powerful pressor agent; agonist (DRVYIHPF; Angiotensin-2; UniProt P01019 25-32, looked up)",Contraction to Agonist,"[4]; -Log M 6, Sar 0 (control)",57.9 ± 3.1 percentage of the maximal cont
same,Contraction to Agonist,"[4]; -Log M 6.5, Sar 0 (control)",57.1 ± 3.1 percentage of the maximal cont
same,Contraction to Agonist,"[4]; -Log M 7, Sar 0 (control)",47.2 ± 2.9 percentage of the maximal cont
same,Contraction to Agonist,"[4]; -Log M 7.5, Sar 0 (control)",40.3 ± 2.6 percentage of the maximal cont
same,Contraction to Agonist,"[4]; -Log M 8, Sar 0 (control)",28.8 ± 1.7 percentage of the maximal cont
same,Contraction to Agonist,"[4]; -Log M 8.5, Sar 0 (control)",11.8 ± 1.1 percentage of the maximal cont
same,Contraction to Agonist,"[4]; -Log M 9, Sar 0 (control)",0 percentage of the maximal cont
same,maximum contraction response to angiotensin II,[4]; n=6,6.4 ± 2.5 g
same,EC50,"[4]; n=6, read-out: average ED50 of contraction to angiotensin II",8.3 nM
same,maximum response to angiotensin II,"[4]; without S-nitrosocaptopril, n=5",55.8±6.9 % of the maximal response to norepinephrine
